# Source: patent publication US8487001B2, “Medium-chain length fatty acids, glycerides and analogues as neutrophil survival and activation factors” (ProMetic BioSciences Inc., priority 2001, dated 2013)
# “And” between values parts separate entries of the source, which are not always exact repeats. Identical values can stand only once.
# What was measured:
# spleen cells = experiment: In vivo chemoprotection: spleen cell count; settings: for effect on spleen cell count compared to cyclophosphamide treated mice: protocol of example 16 (pre-treatment)
# Description: (§1) To examine the immunoprotective effect of MCT or other compounds, mice were pre-treated orally at day-3, -2 and -1 or treated intravenously at day 0 with the test compound. Mice were sacrificed at day +5 by cardiac puncture and cervical dislocation. Then, cell suspensions were prepared from thymus, spleen and bone marrow as follow.
# (§2) Tissues were crushed in PBS buffer and contaminating erythrocytes were lysed in ACK buffer (155 mM NH4Cl, 12 mM NaHCO3, 0.1 mM EDTA, pH 7.3) for 5 minutes. Cells were then collected by centrifugation and washed three times in PBS and resuspended in tissue culture medium. Cells were counted on a hemacytometer.
# (§3) Chemoprotection studies were performed as described in example 16 except that mice were (post)-treated with MCT, sodium caprylate, sodium caprate or capric acid per o.s. on day 1, 2, 3 and 4.
# DA-3 breast carcinoma = experiment: Antitumor activity in DA-3 breast carcinoma model; assay type: in vivo, BALB/c mice; parameters: Tumor volume: unit not given here; settings: for effect on tumor volume compared to the control: FIG. 12, Table 20; for effect on tumor volume compared to the control / T/C (%): therapeutic CY 200 mg/kg, TX 30 mg/kg; for Treated/Control (%) / Tumor volume: Table 19, sub-therapeutic CY 100 mg/kg, TX 20 mg/kg i.v. day 9 and 16, MCT per os, day 23; for T/C (%): Table 20
# Description: The syngeneic tumor DMBA3 (DA-3, breast carcinoma model) arose from a preneoplastic lesion treated with 7,12-dimethylbenzanthracene in female BALB/c mice. DA-3 cells were grown as monolayer cultures in plastic flasks in RPMI-1640 containing 0.1 mM nonessential amino acids, […], 2 mM L-glutamine and 100 μg/ml gentamycin sulfate. This was further supplemented with 50 μM 2-mercaptoethanol and 10% fetal bovine serum. The DA-3 tumors were serially passage in vivo by s.c. inoculation of 5×10^5 viable tumor cells to produce localized tumors in 6- to 8-week old BALB/c mice. The animals were then serially monitored by manual palpation for evidence of tumor. Serial tumor volume was obtained by bi-dimensional diameter measurements with calipers, using the formula […] (a×b^2) where “a” was the major tumor diameter and “b” the minor perpendicular diameter.
# BABL/c mice were injected with tumor cells on day 0. […] Body weights and tumor volumes were monitored from day 4 until day 23. At day 23, all animals were sacrificed. The % T/C (treatment over control) was calculated as the ratio of tumor volumes at termination date in the treatment group divided by the respective volumes in the control group multiplied by 100. By the NCl criteria the product is considered effective if % T/C is ≦40%.
# bone marrow cells = experiment: In vivo chemoprotection: bone marrow cell count; settings: for effect on bone marrow cell count compared to cyclophosphamide treated mice: protocol of example 16 (pre-treatment)
# Description: as §1, §2, §3
# human neutrophils (PMN) = experiment: Doxorubicin-induced neutrophil apoptosis, comparison to GM-CSF (% PMN viability); assay type: cell-based; settings: for effect on doxorubicin-induced human neutrophil apoptosis: Table 2
# Description: Table 2 represents the effect of GM-CSF, MCT and tricaprylin on doxorubicin-induced human neutrophil apoptosis.
# spleen cell subsets = experiment: Spleen immunophenotyping (flow cytometry of cell surface markers); assay type: in vivo, C57BL/6 mice
# Description: (§4) Female, 6- to 8-week old, C57BL/6 mice were pre-treated on day -3, -2 and -1 per o.s. or intravenously at day 0 with different concentrations of MCT. Immunophenotyping was also performed on immunosuppressed animals. […] Mice were sacrificed on day 5 by cardiac puncture. Blood and spleens were collected and cell suspensions prepared and erythrocytes lysed in ACK buffer (155 mM NH4Cl, 12 mM NaHCO3, 0.1 mM EDTA, pH 7.3) for 5 minutes. The cells were washed three times in PBS, pH 7.4 and resuspended in tissue culture medium. The cells were then incubated for 45 minutes on ice with fluorescein isothiocyanate (FITC) or phycoerythrin (PE) conjugated cell surface marker according to the manufacturer's (Gibco/BRL, Cedarlane, Boehringer Mannheim) recommendation. The cells were then washed in PBS, fixed with 1% paraformaldehyde and analyzed with a Coulter XL flow cytometer. Analysis of the cell subsets was undertaken by determination of standard cell surface markers which were as follows: TCR (T-cell receptor), CD4 (T helper), CD8 (T cytotoxic/suppressor), CD11b (macrophage), NK (NK cells) and Ly5 (B-cells). Bone marrow cells were obtained as described in example 15. Cells were stained by a 45 minutes incubation of FITC or PE conjugated cell surface marker according to the manufacturer's recommendation. The cells were then washed in PBS, fixed with 1% paraformaldehyde and analyzed with a Coulter XL flow cytometer. Analysis of the cell subsets was undertaken by determination of standard cell surface markers which were as follows: CD34 (hematopoietic progenitor cells), CD41 (platelets, megakaryocytes), CD13 (myelomonocytic stem cells, myelocytes, promonocytes) and CD38 (lymphoid stem cells, pro-B, pre-B).
# blood cell subsets = experiment: Blood immunophenotyping (flow cytometry of cell surface markers); assay type: in vivo, C57BL/6 mice; settings: for Blood Immunophenotyping: effect compared to cyclophosphamide alone (words): CY (200 mg/kg) immunosuppressed mice
# Description: as §4
# bone marrow cell subsets = experiment: Bone marrow immunophenotyping (CD34, CD13, CD41, CD38); assay type: in vivo, C57BL/6 mice; settings: mouse, in vivo
# Description: as §4
# The effect of MCT, sodium caprylate, sodium caprate on bone marrow immunophenotyping was assessed by the protocol described in example 26.
# thymus = experiment: In vivo: thymus weight, MCT versus GM-CSF; settings: normal mice; FIG. 8
# Description: as §1
# In vivo comparison on the induction of immune cell proliferation/regeneration or protection was undertaken following the protocol described in example 16. Comparative studies of MCT and GM-CSF were performed on normal and immunosuppressed animals.
# [1] = Table 16, CY-treated mice, CY + test compound (CY line = CY alone), protocol of example 16
# [2] = Table 6, CY-treated mice, CY + test compound (CY line = CY alone), protocol of example 16
# [3] = Table 8, CY-immunosuppressed mice, CY + test compound 6.25 μM (CY line = CY alone)
# [4] = Table 5, CY-treated mice, CY + test compound (CY line = CY alone), protocol of example 16
# [5] = Table 7, CY-treated mice, CY + test compound 6.25 μMole pre-treatment (CY line = CY alone)
# [6] = Table 9, CY-immunosuppressed mice, CY + test compound 6.25 μMole (CY line = CY alone)
# [7] = Table 10, CY-treated mice, post-treatment per o.s. on day 1, 2, 3 and 4 with test substance 12.5 μM (CY line = CY alone)
# [8] = immunosuppressed animals, comparison MCT versus GM-CSF
molecule,measurement,setting,value
"CC(=O)O[C@@]12CO[C@@H]1C[C@H](O)[C@@]1(C)C(=O)[C@H](O)C3=C(C)[C@@H](OC(=O)[C@H](O)[C@@H](NC(=O)OC(C)(C)C)c4ccccc4)C[C@@](O)([C@@H](OC(=O)c4ccccc4)[C@H]21)C3(C)C [TX, taxotere]",effect of cytotoxic drug on spleen cell count compared to the control,"spleen cells; mouse, in vivo, iv",reduce significantly the spleen cell count compared to the control
same,effect on tumor volume compared to the control,DA-3 breast carcinoma,not significant compared to the control mice
same,Treated/Control (%),DA-3 breast carcinoma,64.5%
same,Tumor volume,DA-3 breast carcinoma,37.9 ± 41.5
same,T/C (%),DA-3 breast carcinoma,64.7%
same,effect of cytotoxic drug on bone marrow cell count compared to the control,"bone marrow cells; mouse, in vivo, iv",has no significant effect on bone marrow cell count
"CCCCCCCCCC(=O)OCC(N)COC(=O)CCCCCCCCC [didecanoyl serinol, 1,3-O,O-Didecanoyl serinol]",melting point,,101 °C
same,Spleen # Cells (×10^6),spleen cells; [1],36 ± 9.9 ×10^6
same,Bone Marrow # Cells (×10^6),bone marrow cells; [1],30 ± 3.8 ×10^6
CCCCCCCC(=O)OCC(COC(=O)CCCCCCC)OC(=O)CCCCCCC [tricaprylin],effect on doxorubicin-induced human neutrophil apoptosis,human neutrophils (PMN),rescues doxorubin-induced apoptosis and further enhances the viability of human neutrophils to a higher extent than that observed in the non-treated neutrophils
same,effect on spleen cell count compared to cyclophosphamide treated mice,spleen cells; CY-treated mice,No significant effect
same,Spleen # Cells (×10^6),spleen cells; [2],37 ± 12.6 ×10^6
same,effect on bone marrow cell count compared to cyclophosphamide treated mice,bone marrow cells; CY-treated mice,efficacious in the proliferation or protection of bone marrow cell counts
same,Bone Marrow # Cells (×10^6),bone marrow cells; [2],34 ± 7.8 ×10^6
CCCCCCCCCCCCCC(=O)OCC(COC(=O)CCCCCCCCCCCCC)OC(=O)CCCCCCCCCCCCC [trimyristin],Spleen Immunophenotyping: effect compared to cyclophosphamide alone (words),spleen cell subsets; CY (200 mg/kg) immunosuppressed mice,enhance the relative percentage of CD11+
same,Spleen Immunophenotyping: CD11+ cell subset (relative percentage),"spleen cell subsets; Table 14, CY (200 mg/kg) immunosuppressed mice, compound 6.25 μM",42.94 ± 8.45
same,Blood Immunophenotyping: effect compared to cyclophosphamide alone (words),blood cell subsets,no significant effect compared to cyclophosphamide alone
same,Blood Immunophenotyping: effect compared to cyclophosphamide alone (words),blood cell subsets; listed as Trimyristin,No significant effect
same,effect on spleen cell count compared to cyclophosphamide treated mice,spleen cells; CY-treated mice,weak (not significant) activity
same,Spleen # Cells (×10^6),spleen cells; [3],15 ± 4.6 ×10^6
same,effect on bone marrow cell count compared to cyclophosphamide treated mice,bone marrow cells; CY-treated mice,weak (not significant) activity
same,Bone Marrow # Cells (×10^6),bone marrow cells; [3],31 ± 9.9 ×10^6
"O=P1(N(CCCl)CCCl)NCCCO1 (centres unmarked) [CY, cyclophosphamide, reference compound]",Spleen Immunophenotyping: CD11+ cell subset (relative percentage),"spleen cell subsets; mouse, in vivo",16.31 ± 4.85
same,Spleen Immunophenotyping: NK+ cell subset (relative percentage),"spleen cell subsets; mouse, in vivo",7.53 ± 2.52
same,Blood Immunophenotyping: CD11+ cell subset (relative percentage),"blood cell subsets; mouse, in vivo",26.41 ± 4.54
same,Blood Immunophenotyping: LY5−TCR− cell subset (relative percentage),"blood cell subsets; mouse, in vivo",36.82 ± 9.93 and 56.36 ± 7.26 and 40.91 ± 8.84
same,effect of cytotoxic drug on spleen cell count compared to the control,"spleen cells; FIG. 7, cytotoxic drug i.v. at day 0",reduce significantly the spleen cell count compared to the control
same,Spleen # Cells (×10^6),spleen cells; [4],23 ± 4.0 ×10^6
same,Spleen # Cells (×10^6),spleen cells; [2],36 ± 13.6 ×10^6
same,Spleen # Cells (×10^6),spleen cells; [5],24 ± 6 ×10^6
same,Spleen # Cells (×10^6),spleen cells; [3],19 ± 6.5 ×10^6
same,Spleen # Cells (×10^6),spleen cells; [6],33 ± 13.2 ×10^6
same,Spleen # Cells (×10^6),spleen cells; [7],30 ± 9.5 ×10^6
same,Spleen # Cells (×10^6),spleen cells; [1],29 ± 9.2 ×10^6
same,effect on tumor volume compared to the control,DA-3 breast carcinoma,significant reduction of the tumor volume
same,Treated/Control (%),DA-3 breast carcinoma,46.8%
same,Tumor volume,DA-3 breast carcinoma,27.5 ± 15.9
same,T/C (%),DA-3 breast carcinoma,18.8%
same,% Cells CD13+ (bone marrow),bone marrow cell subsets,3.2 ± 0.5%
same,% Cells CD34+ (bone marrow),bone marrow cell subsets,10 ± 1.0%
same,% Cells CD38+ (bone marrow),bone marrow cell subsets,39.6 ± 13.6%
same,% Cells CD41+ (bone marrow),bone marrow cell subsets,4.2 ± 0.6%
same,Bone marrow immunophenotyping,bone marrow cell subsets,induces a significant increase in all studied subsets
same,effect of cytotoxic drug on bone marrow cell count compared to the control,"bone marrow cells; FIG. 6, cytotoxic drug i.v. at day 0",depressed the bone marrow cell count compared to the control
same,Bone Marrow # Cells (×10^6),bone marrow cells; [4],22 ± 5.7 ×10^6
same,Bone Marrow # Cells (×10^6),bone marrow cells; [2],22 ± 5.8 ×10^6
same,Bone Marrow # Cells (×10^6),bone marrow cells; [5],32 ± 6.3 ×10^6
same,Bone Marrow # Cells (×10^6),bone marrow cells; [3],27 ± 2.8 ×10^6
same,Bone Marrow # Cells (×10^6),bone marrow cells; [6],25 ± 4.9 ×10^6
same,Bone Marrow # Cells (×10^6),bone marrow cells; [7],19 ± 4.99 ×10^6
same,Bone Marrow # Cells (×10^6),bone marrow cells; [1],28 ± 3.4 ×10^6
same,Bone Marrow # Cells (×10^6),"bone marrow cells; Table 17, CY-treated mice, CY + test compound (CY line = CY alone), protocol of example 16",26.2 ± 2.6 ×10^6
same,Bone Marrow # Cells (×10^6),"bone marrow cells; Table 18, CY-treated mice, CY + test compound (CY line = CY alone), protocol of example 16",27.5 ± 8.0 ×10^6
"GM-CSF: granulocyte-macrophage colony stimulating factor, hematopoietic growth factor",% PMN Viability,human neutrophils (PMN); GM-CSF 10^-7 M + DOX (10^-5 M),16.75 ± 2.05%
same,% PMN Viability,human neutrophils (PMN); GM-CSF 10^-8 M + DOX (10^-5 M),6.99 ± 0.23%
same,effect on doxorubicin-induced human neutrophil apoptosis,human neutrophils (PMN),able to rescue or protect human neutrophils against doxorubicin-induced apoptosis
same,effect on thymus weight,thymus,significant effect
same,activity on spleen cell count,spleen cells; [8],has no significant activity on bone marrow and spleen cell counts
same,activity on bone marrow cell count,bone marrow cells; [8],has no significant activity on bone marrow and spleen cell counts
